Results reported in patent US5980913A, “Peptides having immunomodulatory activity” (Biochem Pharma, Inc., priority 1994, dated 1999).
Where a SMILES comes first, the peptide text is derived from it. [ ]: non-standard residue; d: D form.

Tests used:
[1] = system: blood cell subsets (cell surface antigens); assay: In vivo/ex vivo immunophenotyping in the blood, mice treated 4 consecutive days, blood taken on day 5; design: species or system C57BL/6 mice
Method: C57BL.backslash.6 mice are treated with 0, 50, 100, 200, and 300 mg/kg of drug (in saline) for 4 consecutive days. Blood is taken by cardiac puncture on day 5, and the lymphocytes are isolated from spleen in the following manner:
1. Immunophenotyping (blood and spleen)
Cell immunophenotyping is performed on blood and spleen. The following cell surface antigens are analyzed:
CD4 (T helper/inducer, binds class II-restricted T cells);
CD8 (cytotoxic T cells, CTL adhesion);
MAC-1 (monocyte/macrophage);
NK (natural killer cells);
CD45 (all leukocytes, protein tyrosine phosphatase).

[2] = system: C57BL/6 lymphocytes with irradiated DBA/2 cells; assay: Mixed lymphocyte reaction (MLR), 3H thymidine uptake; type: cell-based, mice; conditions: 10^-7 M
Excerpt: 1. Cytotoxic T Lymphocytes (CTL) Mixed Lymphocyte Reaction (MLR) and Mitogenic Response Assays
The protocols used are described in Hudson L., Haay F., Pratical immunology, 3rd edition, Blackwell, Scientific publications, Oxford 1989, p. 158-162, and p.447.
Lymphocytes were isolated from C57BL/6 mice and DBA/2 mice in accordance to techniques well known in the art. Cell concentration was adjusted to 10×10^6 cell/ml for each assay. The cells isolated from DBA/2 mice were irradiated with 3000 Rads.
In a 6 well plate, each well was set up with:
The cells were incubated for five days at 37° C. in 5% CO2, after which CTL and MLR assays were performed.
b) Mixed Lymphocyte Reaction (MLR)
Mixed lymphocyte reaction is an in vitro counterpart of the allograft rejection. Briefly, lymphocyte activation (mitotic response) is obtained when cells from two inbred strains or from two outbred individuals of any species are mixed in in vitro culture. To have a unidirectional response, the proliferation of either cell type may be blocked with X-ray irradiation or mitomycin C treatment. After 4 days incubation, ^3 H thymidine uptake and cytotoxicity assays (CTL) were performed. The cells were then resuspended and 100 μl of cell suspension was deposited in each well of a 96 well plate. 1 μCi of tritiated thymidine was added for 6 hours. After incubation, the cells were then harvested and counted using a Microbeta counter.

## NCCCC[C@@H](N)C(=O)N[C@@H](CC(N)=O)C(=O)N1CCC[C@H]1C(=O)N[C@@H](Cc1ccc(O)cc1)C(=O)O [PEPTIDE #5, H-(D-Lys)-Asn-Pro-Tyr-OH] (H-[dK]NPY-OH)
[1]; 100 mg/kg, second assay
  CD4+ CD8- cell subset, relative percentage, MEAN: 25.00
  CD4+ CD11b+ cell subset, relative percentage, MEAN: 0.50
  CD4+ CD11b- cell subset, relative percentage, MEAN: 21.58
  CD4- CD8+ cell subset, relative percentage, MEAN: 6.80
  CD4- CD8- cell subset, relative percentage, MEAN: 67.83
  CD4- CD11b+ cell subset, relative percentage, MEAN: 10.28
  CD4- CD11b- cell subset, relative percentage, MEAN: 67.65
  CD45+ CD4+ cell subset, relative percentage, MEAN: 22.70
  CD45+ CD4- cell subset, relative percentage, MEAN: 68.45
  CD45+ CD8+ cell subset, relative percentage, MEAN: 7.05
  CD45+ CD8- cell subset, relative percentage, MEAN: 85.00
  CD45- CD4+ cell subset, relative percentage, MEAN: 2.23
  CD45- CD4- cell subset, relative percentage, MEAN: 6.63
  CD45- CD8+ cell subset, relative percentage, MEAN: 0.10
  CD45- CD8- cell subset, relative percentage, MEAN: 7.83
  Ly5(B) cell subset, relative percentage, MEAN: 56.10
  NK+ CD3+ cell subset, relative percentage, MEAN: 4.68
  NK+ CD3- cell subset, relative percentage, MEAN: 7.58
  NK- CD3+ cell subset, relative percentage, MEAN: 36.30
  NK- CD3- cell subset, relative percentage, MEAN: 51.43
  TCR(T) cell subset, relative percentage, MEAN: 37.50
[1]; 200 mg/kg, first assay
  CD4+ CD8+ cell subset, relative percentage, MEAN: 1.90
  CD4+ CD8- cell subset, relative percentage, MEAN: 19.00
  CD4+ CD11b+ cell subset, relative percentage, MEAN: 0.85
  CD4+ CD11b- cell subset, relative percentage, MEAN: 18.98
  CD4- CD8+ cell subset, relative percentage, MEAN: 4.68
  CD4- CD8- cell subset, relative percentage, MEAN: 74.40
  CD4- CD11b+ cell subset, relative percentage, MEAN: 7.78
  CD4- CD11b- cell subset, relative percentage, MEAN: 72.45
  CD45+ CD4+ cell subset, relative percentage, MEAN: 17.45
  CD45+ CD4- cell subset, relative percentage, MEAN: 57.70
  CD45+ CD8+ cell subset, relative percentage, MEAN: 6.15
  CD45+ CD8- cell subset, relative percentage, MEAN: 64.30
  CD45- CD4+ cell subset, relative percentage, MEAN: 3.48
  CD45- CD4- cell subset, relative percentage, MEAN: 21.35
  CD45- CD8- cell subset, relative percentage, MEAN: 29.08
  CD45- CDE8+ cell subset, relative percentage, MEAN: 0.48
  Ly5(B) cell subset, relative percentage, MEAN: 65.60
  NK+ CD3+ cell subset, relative percentage, MEAN: 1.93
  NK+ CD3- cell subset, relative percentage, MEAN: 5.73
  NK- CD3+ cell subset, relative percentage, MEAN: 33.03
  NK- CD3- cell subset, relative percentage, MEAN: 59.33
  TCR(T) cell subset, relative percentage, MEAN: 32.18
[1]; 200 mg/kg, second assay
  CD4+ CD8+ cell subset, relative percentage, MEAN: 0.30
  CD4+ CD8- cell subset, relative percentage, MEAN: 23.13
  CD4+ CD11b+ cell subset, relative percentage, MEAN: 0.13
  CD4+ CD11b- cell subset, relative percentage, MEAN: 15.40
  CD4- CD8+ cell subset, relative percentage, MEAN: 7.58
  CD4- CD8- cell subset, relative percentage, MEAN: 69.03
  CD4- CD11b+ cell subset, relative percentage, MEAN: 5.20
  CD4- CD11b- cell subset, relative percentage, MEAN: 79.30
  CD45+ CD4+ cell subset, relative percentage, MEAN: 20.85
  CD45+ CD4- cell subset, relative percentage, MEAN: 71.95
  CD45+ CD8+ cell subset, relative percentage, MEAN: 7.83
  CD45+ CD8- cell subset, relative percentage, MEAN: 85.60
  CD45- CD4+ cell subset, relative percentage, MEAN: 2.23
  CD45- CD4- cell subset, relative percentage, MEAN: 5.00
  CD45- CD8+ cell subset, relative percentage, MEAN: 0.05
  CD45- CD8- cell subset, relative percentage, MEAN: 6.53
  Ly5(B) cell subset, relative percentage, MEAN: 65.63
  NK+ CD3+ cell subset, relative percentage, MEAN: 2.90
  NK+ CD3- cell subset, relative percentage, MEAN: 6.83
  NK- CD3+ cell subset, relative percentage, MEAN: 32.30
  NK- CD3- cell subset, relative percentage, MEAN: 58.03
  TCR(T) cell subset, relative percentage, MEAN: 35.80
[1]; all tested doses
  CD4- CD8-, figure printed with the significant increase of B cells: 73%
  Ly5, figure printed with the significant increase of B cells: 80%
  change of B cells (in words): significant increase
[2]
  MLR: 2.1 ×
